Measurements from US20250255945A1, “CLICK CHEMISTRY HLA POLYPEPTIDES” (IMMUNEO Therapeutics GmbH, priority 2024, published 2025).

Tested on: peripheral blood mononuclear cells (PBMCs)
Assay: IFN-γ ELISPOT assay (ex vivo) with subject PBMCs
Type: cell-based, human
Details: Table 1, HTAPPs; response in ELISPOT experiments
Procedure: IFNγ ELISpot analysis (for protocol see A. Lalvani, R. Brookes, S. Hambleton, W. J. Britton, A. V. S. Hill, A. J. McMichael, J Exp Med 1997; 186 (6): 859-865) was performed ex vivo (without further in vitro culturing for expansion) using PBMCs depleted of CD4+ and enriched for CD8+ T cells (CD8+ effectors), or depleted of CD8+ and enriched for CD4+ T cells (CD4+ effectors). Tests were performed in duplicate and with a positive and negative control, Multiscreen filter plates (Merck Millipore) pre-coated with IFNγ-specific antibodies (ELISpotPro kit, Mabtech). 267.000 Cells were used per plate. Plates were scanned using an AID Classic Robot ELISPOT Reader and analyzed by AID ELISPOT 7.0 software (AID Autoimmun Diagnostika). Antigen Peptides (except negative and positive control group) were done in duplicates, spot counts were taken as mean values of each duplicate.
The immunogenicity of each of the six peptides was analyzed by IFN-γ secretion by subject peripheral blood mononuclear cells (PBMCs) using ELIspot assay. […]
The immunogenicity of each peptide was assessed in peripheral blood mononuclear cells (PBMCs) from patients and using the IFN-γ-ELISPOT assay. ELISPOT results were considered positive if the number of spots was at least 2-fold higher than the negative control (medium) and at least 50 spots were detected. […] We also tested the effect of delivery aiding peptides (DACP-1) and peptide extension by overlapping tandemization and tandemization on the immunogenicity of the epitopes.

Row | Substance | Elispot [nspots/pM]
1 | 1 (KLVVVGAVGVGKSALTI) [compound 1] | 32,5 nspots/pM
2 | 2 (LANSPDLSHLAYYVTKVKEEDAF) [compound 2] | 419,5 nspots/pM
3 | 3 (LQEFRRFQDPGRIVAIV) [compound 3] | 246,0 nspots/pM
4 | 4 (ETNFKSLFHDLFQKVEE) [compound 4] | 233,5 nspots/pM
5 | 5 (IKPRILGFDTPHYWLC) [compound 5] | 267,5 nspots/pM
6 | 6 (NVGLSAVCTYNLSTAAAYCIHSINLHNFSNSVL) [compound 6] | 330,5 nspots/pM
7 | 8 (KKIRKPRTIYSSLQLQAAAYGIYDALFDIESKVDPSK) [compound 8] | 351,5 nspots/pM
8 | 9 (LPVMLLIVARPVKLAAFPTSLSD) [compound 9] | 289,5 nspots/pM
9 | 10 (LFKDLGLPARTVSTTF) [compound 10] | 143,5 nspots/pM
10 | 11 (SPLTGGNMAF) [compound 11] | 145,5 nspots/pM
11 | 13 (LSKNLVAQISALALQLAAYGNSITGIISSVLGHIS) [compound 13] | 205 nspots/pM
12 | 14 (SPRQCSSWTLAAYKLAAFPTSL) [compound 14] | 137,5 nspots/pM
13 | 16 (RERRVASWAMSFERL) [compound 16] | 326,5 nspots/pM
14 | 17 (QSYPGSASLAAYSGMPRISKL) [compound 17] | 202,5 nspots/pM

Same assay, conditions: Table 2, HTAPP-DACP; response in ELISPOT experiments

Row | Substance | Elispot [nspots/pM]
15 | 18 (KLVVVGAVGVGKSALTIRQIKIWFQNRRMKWKK) [compound 18] | 447,5 nspots/pM
16 | 19 (LANSPDLSHLAYYVTKVKEEDAFRQIKIWFQNRRMKWKK) [compound 19] | 430,5 nspots/pM
17 | 20 (LQEFRRFQDPGRIVAIVRQIKIWFQNRRMKWKK) [compound 20] | 500,0 nspots/pM
18 | 21 (ETNFKSLFHDLFQKVEERQIKIWFQNRRMKWKK) [compound 21] | 334,0 nspots/pM
19 | 22 (IKPRILGFDTPHYWLCRQIKIWFQNRRMKWKK) [compound 22] | 477,0 nspots/pM
20 | 23 (MLFSNITPKAAYSPLTGGNMAFRQIKIWFQNRRMKWKK) [compound 23] | 285,0 nspots/pM
21 | 24 (RERRVASWAMSFERLRQIKIWFQNRRMKWKK) [compound 24] | 436,0 nspots/pM
22 | 25 (RQRLALEAEKAAYEERGAAEALSVVRQIKIWFQNRRMKWKK) [compound 25] | 317,5 nspots/pM
23 | 26 (IPDEYGNTALHYAIYNEDKLMRQIKIWFQNRRMKWKK) [compound 26] | 347,5 nspots/pM
24 | 27 (LFKDLGLPARTVSTTFRQIKIWFQNRRMKWKK) [compound 27] | 196,0 nspots/pM
25 | 28 (SPRQCSSWTLAAYKLAAFPTSLRQIKIWFQNRRMKWKK) [compound 28] | 320,0 nspots/pM
26 | 29 (HRCATITHLLAAYYLVLNFNKKRQIKIWFQNRRMKWKK) [compound 29] | 342,5 nspots/pM
27 | 30 (KDYSVLYVVPGPVRFQRQIKIWFQNRRMKWKK) [compound 30] | 234,0 nspots/pM
28 | 31 (QSYPGSASLAAYSGMPRISKLRQIKIWFQNRRMKWK) [compound 31] | 415,0 nspots/pM

Same assay, conditions: Table 4, HTAPP-DACP related to group therapy

Row | Substance | Elispot [nspots/pM]
29 | 32 (AAKALMSAFYTFRYPLSLRQIKIWFQNRRMKWKK) [compound 32] | 75,8 nspots/pM
30 | 33 (ATYLWWVNNQSLPVSPRAAYLLLTASLLTFWNPRQIKIWFQNRRMKWKK) [compound 33] | 271,7 nspots/pM
31 | 34 (DSTPPPGTRVLAMAIYKQSQRQIKIWFQNRRMKWKK) [compound 34] | 35,8 nspots/pM
32 | 35 (EYFMKQMNDARHGGWTTKMDRQIKIWFQNRRMKWKK) [compound 35] | 20,0 nspots/pM
33 | 36 (EYKLVVVGAVGVGKSALTIQRQIKIWFQNRRMKWKK) [compound 36] | 140 nspots/pM
34 | 37 (GACRHGDRCSRLHNKPTFSRQIKIWFQNRRMKWKK) [compound 37] | 47,5 nspots/pM
35 | 40 (HTLYGHTSTVCCMHLHEKRVRQIKIWFQNRRMKWKK) [compound 40] | 95,0 nspots/pM
36 | 41 (HTLYGHTSTVHCMHLHEKRVRQIKIWFQNRRMKWKK) [compound 41] | 39,2 nspots/pM
37 | 42 (ICLTSTVQLIMQLMPFGCLLRQIKIWFQNRRMKWKK) [compound 42] | 20,8 nspots/pM
38 | 43 (IGHKVDAVFMKDGFFYFFHGTRQYRQIKIWFQNRRMKWKK) [compound 43] | 134,2 nspots/pM
39 | 44 (KAISTRDPLSKITEQEKDFLWRQIKIWFQNRRMKWKK) [compound 44] | 103,3 nspots/pM
40 | 45 (KIGDFGLATEKSRWSGSHQRQIKIWFQNRRMKWKK) [compound 45] | 55,0 nspots/pM
41 | 46 (KLVVVGACGVGKSALTIQLIQNHRQIKIWFQNRRMKWKK) [compound 46] | 54,2 nspots/pM
42 | 47 (KLVVVGADGVGKSALTIQLIQNHRQIKIWFQNRRMKWKK) [compound 47] | 120,0 nspots/pM
43 | 48 (KVKIPVAIKTSPKANKEIRQIKIWFQNRRMKWKK) [compound 48] | 39,2 nspots/pM
44 | 49 (LLDILDTAGHEEYSAMRDQRQIKIWFQNRRMKWKK) [compound 49] | 161,7 nspots/pM
45 | 50 (LLGRNSFEVCVCACPGRDRRQIKIWFQNRRMKWKK) [compound 50] | 256,7 nspots/pM
46 | 51 (LLGRNSFEVHVCACPGRDRRQIKIWFQNRRMKWKK) [compound 51] | 264,2 nspots/pM
47 | 52 (LLGRNSFEVLVCACPGRDRRQIKIWFQNRRMKWKK) [compound 52] | 275,0 nspots/pM

Same assay, conditions: Table 5, HTAPP-DACP related to group therapy

Row | Substance | Elispot [nspots/pM]
48 | 53 (MAQYLSTLLLLLATLAVALRQIKIWFQNRRMKWKK) [compound 53] | 190,8 nspots/pM
49 | 54 (MLPQIPFLLLVSLNLVHGVFRQIKIWFQNRRMKWKK) [compound 54] | 246,7 nspots/pM
50 | 55 (MTEYKLVVVGARGVGKSALRQIKIWFQNRRMKWKK) [compound 55] | 44,2 nspots/pM
51 | 56 (MTEYKLVVVGASGVGKSALTIQLIQNHRQIKIWFQNRRMKWKK) [compound 56] | 56,7 nspots/pM
52 | 57 (NSSCMGGMNQRPILTIITLRQIKIWFQNRRMKWKK) [compound 57] | 102,5 nspots/pM
53 | 58 (NSSCMGGMNWRPILTIITLRQIKIWFQNRRMKWKK) [compound 58] | 228,3 nspots/pM
54 | 59 (PSDQDLLRCCVLTSGIFETRQIKIWFQNRRMKWKK) [compound 59] | 100,8 nspots/pM
55 | 60 (PSDQDLLRCHVLTSGIFETRQIKIWFQNRRMKWKK) [compound 60] | 163,3 nspots/pM
56 | 61 (QHVKITDFGRAKLLGAEEKRQIKIWFQNRRMKWKK) [compound 61] | 76,7 nspots/pM
57 | 62 (RVCACPGRDWRTEEENLRKRQIKIWFQNRRMKWKK) [compound 62] | 279,2 nspots/pM
58 | 63 (SQHMTEVVRHCPHHERCSDRQIKIWFQNRRMKWKK) [compound 63] | 88,3 nspots/pM
59 | 64 (STRDPLSEITKQEKDFLWSHRQIKIWFQNRRMKWKK) [compound 64] | 80,8 nspots/pM
60 | 65 (TEYKLVVVGAAGVGKSALTIQRQIKIWFQNRRMKWKK) [compound 65] | 22,5 nspots/pM
61 | 66 (TIHYNYMCNSSCMGSMNRRPILTIRQIKIWFQNRRMKWKK) [compound 66] | 13,3 nspots/pM
62 | 67 (YGIPFIETSTKTRQRVEDARQIKIWFQNRRMKWKK) [compound 67] | 248,3 nspots/pM
63 | 68 (YKLVVVGAGDVGKSALTIQLIQNHFVDRQIKIWFQNRRMKWKK) [compound 68] | 154,2 nspots/pM

Same assay, conditions: Table 6, further HTAPPs, HTAPP-DACPs and reference sequences

Row | Substance | Elispot [nspots/pM]
64 | 69 (VAFLGCPGFAGVLQT) [compound 69] | 149,0 nspots/pM
65 | 70 (ESGCEERGAAMIQTVDPAAHRQIKIWFQNRRMKWKK) [compound 70] | 153,5 nspots/pM
66 | 71 (QRQLNTALPQPFREAPAYSNRQIKIWFQNRRMKWKK) [compound 71] | 270,5 nspots/pM
67 | 72 (MLFSNITPK) [compound 72] | 148,0 nspots/pM
68 | 74 (SPITSVLSADLFPKA) [compound 74] | 128,5 nspots/pM
69 | 75 (SAANIRALNVPPSLA) [compound 75] | 196,0 nspots/pM
70 | 76 (PQELWHFLTQNLSLPN) [compound 76] | 470,5 nspots/pM
71 | 77 (KKIRKPRTIYSSLQLQA) [compound 77] | 148,0 nspots/pM
72 | 78 (GIYDALFDIESKVDPSK) [compound 78] | 134,5 nspots/pM
73 | 79 (AIYNEDKLMAKALLLYGADIERQIKIWFQNRRMKWKK) [compound 79] | 242,5 nspots/pM
74 | 80 (NFMLNQNVMLSVKGITKNVHTRQIKIWFQNRRMKWKK) [compound 80] | 232,5 nspots/pM
75 | 81 (LTPKKLQCVDLHVISNDRQIKIWFQNRRMKWKK) [compound 81] | 272,5 nspots/pM
76 | 82 (LEKLYLYFNKISKIENLEKLIKRQIKIWFQNRRMKWKK) [compound 82] | 305,0 nspots/pM
